Paper PMC7736581, “Activation of the IRE1 RNase through remodeling of the kinase front pocket by ATP-competitive ligands” (Nature Communications, 2020)
Read-outs that look alike come from different tables or passages of the source.

Assays:
Assay in all cases: biochemical
[1] = biological target: Inositol-Requiring Enzyme 1 (IRE1) (Homo sapiens, UniProt O75460); set-up: gene ERN1; IRE1 cytoplasmic kinase-RNase construct; kinetic fluorescence RNA cleavage (FAM/BHQ XBP1 stem-loop) by IRE1 LKR Q470-L977
Protocol: A 5′-Carboxyfluorescein (FAM)-and 3′-Black Hole Quencher (BHQ)-labeled single stem-loop mini-substrate containing XBP1 sequence (sequence reported in Supplementary Table 4) was used as substrate for cleavage by IRE1 LKR (Q470-L977) or IRE1 KR (G547-L977) in 20 mM HEPES pH 7.5, 50 mM potassium acetate, 1 mM magnesium acetate, 1 mM dithiothreitol, 0.05% v/v TritonX-100. Concentrations were as follows: 8 nM IRE1 LKR and 200 nM RNA substrate; 22 nM IRE1 KR-0P and 200 nM RNA substrate; 2 nM IRE1 KR 3P and 500 nM RNA substrate. RNA cleavage was measured kinetically over an hour at room temperature as an increase in fluorescence. The final reaction was carried out in 20 µL in 384-well plates. Samples were run in duplicate. To investigate whether this peculiar conformation had any role in the mechanism of activation of G-1749, we evaluated different tails to substitute the ethyl carbamate on the naphthyl moiety (Fig. 3, Supplementary Table 2). […] This is likely due to clashes with residues lining the front pocket, which in turn would force the tails to occupy the back pocket and break the salt bridge, thereby causing RNase inhibition. […] Experiments in KMS-11 cells (Fig. 3b, c, right panels) confirmed the effect of these tail modifications on IRE1 RNase activation. […] The chemical substituents tolerated by the front pocket seem to be very limited: even a minor substitution of the carbamate oxygen atom to a larger [compound left out], from ethyl carbamate to propyl amide (compound 6), or from methyl carbamate to methyl or ethyl amide (compound 4 or 5, respectively), or increasing the tail length by one atom, from ethyl to propyl carbamate (compound 11), is enough to impart a switch from activation to inhibition (Fig. 3b, c). […] RNA cleavage was measured by a kinetic fluorescence assay using an XBP1-like RNA hairpin substrate and IRE1 LKR construct (Q470-L977). Background from the no-protein control was subtracted from signal before calculating fold change. Source data are provided as a Source Data file. Data are presented as the mean for measurements from two independent experiments (n = 2). c RNA levels for IRE1 RNase product XBP1s measured by bDNA assay of lysates from KMS-11 cells treated with compounds for 4 h. Background from the no-RNA control was subtracted from signal before calculating fold change. Source data are provided as a Source Data file. Data are presented as the mean for measurements from two independent experiments (n = 2). d, e Analytical Ultracentrifugation sedimentation velocity (SV-AUC) experiments for (d), IRE1 LKR (Q470-L977) unphosphorylated and autophosphorylated and (e), IRE1 LKR unphosphorylated in the presence of slight excess G-9807 and G-1749. Calculated sedimentation coefficients for IRE1 monomer (3.1 svedbergs) and dimer (4.6 svedbergs) are highlighted by dotted lines. Source data are provided as a Source Data file.

[2] = biological target: STK33 (Homo sapiens, UniProt Q9BYT3); set-up: Invitrogen kinase panel: Z'Lyte activity (ATP at Km) or LanthaScreen competitive ATP-site binding, percent inhibition
Source text: (§1) We set out to identify allosteric activators of IRE1 RNase by screening internal compound libraries for binding to the kinase, using a published ATP-competitive TR-FRET assay. We then tested kinase binders to assess RNase modulation in an IRE1-specific kinetic RNA cleavage assay that uses the cytoplasmic construct IRE1-LKR (Q470-L977) (Supplementary Fig. 1a). […] Next, we tested these compounds in KMS-11 multiple myeloma cells, known to express functional IRE1 and strongly depend on the IRE1 pathway due to hyper-production of immunoglobulins in the ER[31]. We measured mRNA levels of XBP1s and the well-established RIDD target DGAT2[22] (Fig. 1c and Supplementary Fig. 1c, respectively) using a branched DNA (bDNA) assay. […] Importantly, neither G-9807 nor G-1749 inhibit PERK (Supplementary Table 1).

[3] = biological target: LTK (Homo sapiens, UniProt P29376); set-up: Invitrogen kinase panel: Z'Lyte activity (ATP at Km) or LanthaScreen competitive ATP-site binding, percent inhibition
Source text: as §1

[4] = biological target: T1, PI3K-G (Homo sapiens, UniProt P48736); set-up: Invitrogen kinase panel: Z'Lyte activity (ATP at Km) or LanthaScreen competitive ATP-site binding, percent inhibition
T1 construct: gene PIK3CG

[5] = biological target: Fes (Homo sapiens, UniProt P07332); set-up: Invitrogen kinase panel: Z'Lyte activity (ATP at Km) or LanthaScreen competitive ATP-site binding, percent inhibition
[6] = biological target: T2, GSK3_alpha (Homo sapiens, UniProt P49840); set-up: Invitrogen kinase panel: Z'Lyte activity (ATP at Km) or LanthaScreen competitive ATP-site binding, percent inhibition
T2 construct: gene GSK3A

[7] = biological target: SPHK1 (Homo sapiens, UniProt Q9NYA1); set-up: Invitrogen kinase panel: Z'Lyte activity (ATP at Km) or LanthaScreen competitive ATP-site binding, percent inhibition
[8] = biological target: DYRK4 (Homo sapiens, UniProt Q9NR20); set-up: Invitrogen kinase panel: Z'Lyte activity (ATP at Km) or LanthaScreen competitive ATP-site binding, percent inhibition
[9] = biological target: EphA1 (Homo sapiens, UniProt P21709); set-up: Invitrogen kinase panel: Z'Lyte activity (ATP at Km) or LanthaScreen competitive ATP-site binding, percent inhibition
[10] = biological target: MARK3 (Homo sapiens, UniProt P27448); set-up: Invitrogen kinase panel: Z'Lyte activity (ATP at Km) or LanthaScreen competitive ATP-site binding, percent inhibition
[11] = biological target: NEK4 (Homo sapiens, UniProt P51957); set-up: Invitrogen kinase panel: Z'Lyte activity (ATP at Km) or LanthaScreen competitive ATP-site binding, percent inhibition
[12] = biological target: T3, TAO2 (Homo sapiens, UniProt Q9UL54); set-up: Invitrogen kinase panel: Z'Lyte activity (ATP at Km) or LanthaScreen competitive ATP-site binding, percent inhibition
T3 construct: gene TAOK2

[13] = RNase activation, read-out: EC50 (RNase biochemical assay), activators

Chain of Inositol-Requiring Enzyme 1 (IRE1) (O75460 547-977): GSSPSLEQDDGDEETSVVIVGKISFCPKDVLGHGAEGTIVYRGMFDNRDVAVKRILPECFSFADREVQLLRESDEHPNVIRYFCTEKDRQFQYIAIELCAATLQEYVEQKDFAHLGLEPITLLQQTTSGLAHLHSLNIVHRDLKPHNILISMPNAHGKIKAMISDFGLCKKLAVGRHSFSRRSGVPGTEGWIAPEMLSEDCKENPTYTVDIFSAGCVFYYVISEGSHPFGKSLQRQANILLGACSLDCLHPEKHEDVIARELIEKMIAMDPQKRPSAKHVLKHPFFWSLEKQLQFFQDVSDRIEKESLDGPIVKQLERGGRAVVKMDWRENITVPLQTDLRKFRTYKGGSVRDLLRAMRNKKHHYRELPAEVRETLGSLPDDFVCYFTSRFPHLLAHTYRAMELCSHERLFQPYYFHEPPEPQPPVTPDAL
Chain of EphA1 (P21709 whole entry): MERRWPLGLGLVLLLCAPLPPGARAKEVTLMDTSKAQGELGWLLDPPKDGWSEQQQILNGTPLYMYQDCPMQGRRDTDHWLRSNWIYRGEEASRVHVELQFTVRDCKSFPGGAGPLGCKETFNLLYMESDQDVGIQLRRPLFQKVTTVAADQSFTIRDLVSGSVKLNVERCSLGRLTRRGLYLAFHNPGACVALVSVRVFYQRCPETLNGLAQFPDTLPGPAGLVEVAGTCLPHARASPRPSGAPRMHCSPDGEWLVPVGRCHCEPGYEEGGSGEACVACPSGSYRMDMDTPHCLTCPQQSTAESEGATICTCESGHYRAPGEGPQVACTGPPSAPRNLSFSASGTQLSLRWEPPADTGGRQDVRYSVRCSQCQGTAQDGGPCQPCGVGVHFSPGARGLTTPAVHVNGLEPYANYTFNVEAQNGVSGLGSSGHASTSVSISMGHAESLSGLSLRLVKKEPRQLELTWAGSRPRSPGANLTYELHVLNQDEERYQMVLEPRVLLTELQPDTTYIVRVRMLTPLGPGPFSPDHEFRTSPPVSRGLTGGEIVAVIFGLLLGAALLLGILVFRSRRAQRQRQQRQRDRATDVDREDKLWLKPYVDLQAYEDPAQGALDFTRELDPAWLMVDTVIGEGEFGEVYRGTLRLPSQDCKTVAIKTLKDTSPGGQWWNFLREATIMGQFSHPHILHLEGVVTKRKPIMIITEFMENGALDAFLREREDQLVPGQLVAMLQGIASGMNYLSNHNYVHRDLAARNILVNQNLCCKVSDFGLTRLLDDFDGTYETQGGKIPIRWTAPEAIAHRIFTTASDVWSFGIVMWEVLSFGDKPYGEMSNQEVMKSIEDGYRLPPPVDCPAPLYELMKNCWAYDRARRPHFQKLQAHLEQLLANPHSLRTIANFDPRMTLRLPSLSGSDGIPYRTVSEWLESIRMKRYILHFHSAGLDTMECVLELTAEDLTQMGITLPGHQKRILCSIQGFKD
T3 sequence (Q9UL54 whole entry): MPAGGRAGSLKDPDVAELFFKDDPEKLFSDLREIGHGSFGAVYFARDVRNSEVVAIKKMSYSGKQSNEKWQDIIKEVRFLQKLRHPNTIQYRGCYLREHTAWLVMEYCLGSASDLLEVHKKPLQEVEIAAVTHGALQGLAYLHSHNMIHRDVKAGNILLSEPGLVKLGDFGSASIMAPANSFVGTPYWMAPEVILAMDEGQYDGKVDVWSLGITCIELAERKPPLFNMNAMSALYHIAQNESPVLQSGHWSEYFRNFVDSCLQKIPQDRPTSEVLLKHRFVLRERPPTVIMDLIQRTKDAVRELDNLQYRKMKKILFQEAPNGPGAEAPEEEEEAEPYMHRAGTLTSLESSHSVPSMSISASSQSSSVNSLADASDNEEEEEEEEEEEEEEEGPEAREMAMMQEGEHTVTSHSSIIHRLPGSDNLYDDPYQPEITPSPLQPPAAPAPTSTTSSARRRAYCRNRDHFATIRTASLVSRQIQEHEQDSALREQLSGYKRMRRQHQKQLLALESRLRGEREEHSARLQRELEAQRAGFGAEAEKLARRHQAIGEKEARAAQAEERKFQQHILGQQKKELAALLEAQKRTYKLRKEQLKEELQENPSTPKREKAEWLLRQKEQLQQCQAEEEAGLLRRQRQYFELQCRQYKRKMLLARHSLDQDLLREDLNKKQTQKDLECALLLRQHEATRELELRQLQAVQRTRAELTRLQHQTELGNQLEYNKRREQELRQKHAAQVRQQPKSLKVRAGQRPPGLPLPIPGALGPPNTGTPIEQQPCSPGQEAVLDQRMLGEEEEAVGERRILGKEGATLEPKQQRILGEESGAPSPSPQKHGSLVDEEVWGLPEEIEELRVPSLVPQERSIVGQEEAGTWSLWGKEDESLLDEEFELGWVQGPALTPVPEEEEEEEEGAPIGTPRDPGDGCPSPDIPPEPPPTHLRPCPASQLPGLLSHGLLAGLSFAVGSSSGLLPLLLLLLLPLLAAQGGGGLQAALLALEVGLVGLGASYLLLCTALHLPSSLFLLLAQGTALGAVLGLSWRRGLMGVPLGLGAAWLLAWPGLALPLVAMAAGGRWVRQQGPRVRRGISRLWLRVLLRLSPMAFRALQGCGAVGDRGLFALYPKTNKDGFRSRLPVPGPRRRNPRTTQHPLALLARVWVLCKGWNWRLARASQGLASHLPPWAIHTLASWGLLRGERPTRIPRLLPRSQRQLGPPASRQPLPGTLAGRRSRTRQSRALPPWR
Chain of DYRK4 (Q9NR20 whole entry): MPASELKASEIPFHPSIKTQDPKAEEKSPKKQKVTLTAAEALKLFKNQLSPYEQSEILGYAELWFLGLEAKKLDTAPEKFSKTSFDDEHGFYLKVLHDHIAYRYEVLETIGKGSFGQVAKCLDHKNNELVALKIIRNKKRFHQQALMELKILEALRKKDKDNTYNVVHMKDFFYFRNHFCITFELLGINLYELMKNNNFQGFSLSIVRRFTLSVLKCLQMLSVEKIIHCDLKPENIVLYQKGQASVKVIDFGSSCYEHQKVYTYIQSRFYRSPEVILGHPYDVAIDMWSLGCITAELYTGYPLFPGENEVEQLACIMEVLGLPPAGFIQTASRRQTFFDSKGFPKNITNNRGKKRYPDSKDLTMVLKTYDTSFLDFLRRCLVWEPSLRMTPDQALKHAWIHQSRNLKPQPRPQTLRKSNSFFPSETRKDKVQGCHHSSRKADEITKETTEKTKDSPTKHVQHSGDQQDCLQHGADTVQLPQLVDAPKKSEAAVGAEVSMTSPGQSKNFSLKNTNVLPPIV
T2 sequence (P49840 whole entry): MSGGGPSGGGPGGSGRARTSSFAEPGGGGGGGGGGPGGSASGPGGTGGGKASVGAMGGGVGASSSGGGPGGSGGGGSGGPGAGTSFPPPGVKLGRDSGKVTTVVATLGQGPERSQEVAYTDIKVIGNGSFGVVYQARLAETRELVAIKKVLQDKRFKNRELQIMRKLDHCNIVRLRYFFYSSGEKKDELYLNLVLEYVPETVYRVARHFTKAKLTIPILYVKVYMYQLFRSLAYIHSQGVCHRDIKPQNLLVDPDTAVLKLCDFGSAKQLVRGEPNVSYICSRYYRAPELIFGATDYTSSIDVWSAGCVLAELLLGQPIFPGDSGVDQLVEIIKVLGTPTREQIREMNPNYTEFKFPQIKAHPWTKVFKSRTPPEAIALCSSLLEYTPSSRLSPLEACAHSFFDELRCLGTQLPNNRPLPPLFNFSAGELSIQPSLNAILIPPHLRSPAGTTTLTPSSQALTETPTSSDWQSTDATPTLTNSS
Chain of Fes (P07332 whole entry): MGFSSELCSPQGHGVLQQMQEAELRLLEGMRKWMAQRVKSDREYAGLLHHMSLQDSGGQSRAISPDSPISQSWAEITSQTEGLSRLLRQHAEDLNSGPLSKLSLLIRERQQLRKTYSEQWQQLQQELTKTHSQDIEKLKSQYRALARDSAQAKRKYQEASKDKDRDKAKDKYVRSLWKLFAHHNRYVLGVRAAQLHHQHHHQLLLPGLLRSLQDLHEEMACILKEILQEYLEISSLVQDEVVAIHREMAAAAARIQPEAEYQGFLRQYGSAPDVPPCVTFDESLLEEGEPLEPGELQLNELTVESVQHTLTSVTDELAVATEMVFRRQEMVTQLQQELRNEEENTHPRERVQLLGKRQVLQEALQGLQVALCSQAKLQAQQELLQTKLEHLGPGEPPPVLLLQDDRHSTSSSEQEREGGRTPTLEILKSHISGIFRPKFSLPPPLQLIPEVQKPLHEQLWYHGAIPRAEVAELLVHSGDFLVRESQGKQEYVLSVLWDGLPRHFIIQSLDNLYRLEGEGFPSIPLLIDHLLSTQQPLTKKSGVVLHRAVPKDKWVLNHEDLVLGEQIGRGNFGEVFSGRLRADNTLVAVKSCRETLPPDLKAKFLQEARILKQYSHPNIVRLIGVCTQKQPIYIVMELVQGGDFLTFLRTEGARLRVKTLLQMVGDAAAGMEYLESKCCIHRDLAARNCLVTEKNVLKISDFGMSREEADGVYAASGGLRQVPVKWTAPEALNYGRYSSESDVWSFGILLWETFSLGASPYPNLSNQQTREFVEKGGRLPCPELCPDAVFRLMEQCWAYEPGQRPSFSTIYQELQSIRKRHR
Chain of SPHK1 (Q9NYA1 whole entry): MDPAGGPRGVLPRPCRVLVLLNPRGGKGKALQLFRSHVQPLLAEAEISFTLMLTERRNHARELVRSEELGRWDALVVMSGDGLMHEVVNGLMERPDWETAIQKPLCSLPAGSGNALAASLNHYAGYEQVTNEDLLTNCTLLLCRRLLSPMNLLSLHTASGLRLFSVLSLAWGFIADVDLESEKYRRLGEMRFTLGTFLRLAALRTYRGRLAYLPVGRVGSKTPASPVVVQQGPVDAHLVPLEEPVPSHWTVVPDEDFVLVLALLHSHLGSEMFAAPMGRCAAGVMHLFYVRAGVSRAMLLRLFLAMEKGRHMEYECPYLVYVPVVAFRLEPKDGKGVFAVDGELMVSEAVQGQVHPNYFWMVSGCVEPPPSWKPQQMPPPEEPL

Row | EC50 ([1]; RNase inhibition, read-out: EC50 (RNase biochemical assay), inhibitors) | EC50 [1, 13] | Compound | inhibition at 1 µM [2] | inhibition at 1 µM [3] | inhibition at 1 µM [4] | inhibition at 1 µM [5] | inhibition at 1 µM [6] | inhibition at 1 µM [7] | inhibition at 1 µM [8] | inhibition at 1 µM [9] | inhibition at 1 µM [10] | inhibition at 1 µM [11] | inhibition at 1 µM [12]
1 | 17 ± 4 nM |  | Cc1ccc2c(NS(=O)(=O)c3ccccc3Cl)cccc2c1Oc1ncccc1-c1ccnc(N[C@H]2CCCNC2)n1 [AMG-18] |  |  |  |  |  |  |  |  |  |  | 
2 |  | 7 ± 1 nM | CC#CC(=O)Nc1cccc2c(Oc3ncccc3-c3ccnc(N[C@H]4CCCNC4)n3)c(C)ccc12 [G-7658] | -3.5% | -4.5% | -7% | 3.5% | 10.5% | -5% | 1% | 6% | 8% | 5.5% | 74%
3 |  | 18 ± 3 nM | O=c1cc(-c2n[nH]c3ncc(-c4c(F)cccc4F)cc23)nc(N2CCC(O)CC2)[nH]1 [G-9807] |  |  |  |  |  |  |  |  |  |  | 

Row | Compound | EC50 ([1]; RNase inhibition, read-out: EC50 (RNase biochemical assay), inhibitors) | EC50 [1, 13] | inhibition at 1 µM [2] | inhibition at 1 µM [3] | inhibition at 1 µM [4] | inhibition at 1 µM [5] | inhibition at 1 µM [6] | inhibition at 1 µM [7] | inhibition at 1 µM [8] | inhibition at 1 µM [9] | inhibition at 1 µM [10] | inhibition at 1 µM [11] | inhibition at 1 µM [12]
4 | CCOC(=O)Nc1cccc2c(Oc3ncccc3-c3ccnc(N[C@H]4CCCNC4)n3)c(C)ccc12 [G-1749] |  | 9 ± 3 nM | -4% | 1% | 16% | 5% | 2.5% | 14.5% | 2.5% | 7% | 8% | 6% | 72.5%
